TD50 and IC50 data for 24 compounds are collected here from US8008303B2, “Biphenyl derivatives and their use in treating hepatitis C” (AstraZeneca AB, priority 2005, dated 2011).

Like-named read-outs stand apart in the source and are kept apart here.

Data set [1] deals with HCV replicon cells Huh 9B. The class given is cell-based.
The test system of data set [2] is HCV replicon cells Huh 9B. Nature of the data set: HCV replicon assay (luciferase readout). The class given is cell-based. The method, boiled down: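 Compounds, made up at twice final strength (final DMSO 1%), were added to subgenomic replicon cells one day after plating. Incubation then ran 72 h at 37 °C, 5% CO2, without G418. Replication was quantified as firefly luciferase luminescence in lysed cells, with cytotoxicity assessed on a duplicate clear plate.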
Background: In antiviral work, replicon cells carry a viral genome segment that copies itself.

Setting [3] is: concentration reducing total cell area by 50% relative to DMSO controls, methylene blue, absorbance 620 nm, 72 h incubation.
[4] abbreviates: Hepatitis C virus, 72 h, concentration reducing replicon level (luciferase activity) by 50% vs untreated cell control, 72 h incubation.

In the case of `Cc1cc(C(=O)Nc2ccc(N3CCOCC3)cc2)ccc1-c1cccc(C(=O)Nc2ccc(CN3CCS(=O)(=O)CC3)cc2)c1` [Example 135, 2′-Methyl-biphenyl-3,4′-dicarboxylic acid 3-{[4-(1,1-dioxo-1 lambda*6*-thiomorpholin-4-ylmethyl)-phenyl]-amide} 4′-[(4-morpholin-4-yl-phenyl)-amide]], in data set [1], the TD50 entry was “* (key: * < 50 μM; ** > 50 μM)”. For the same compound, the 50% inhibitory concentration (IC50) in data set [2] was less than 1000 nM.
The like results for `Cc1ccc(C(=O)Nc2ccc(N3CCOCC3)cc2)cc1-c1ccc(C(=O)Nc2ccc(Br)c(Cl)c2)cc1` [Example 30, 6-Methyl-biphenyl-3,4′-dicarboxylic acid 4′-[(4-bromo-3-chloro-phenyl)-amide] 3-[(4-morpholin-4-yl-phenyl)-amide]] were, in that order, “** (key: * < 50 μM; ** > 50 μM)” and 1000 to 5000 nM.
Take `O=C(Nc1ccc(CN2CCS(=O)(=O)CC2)cc1)c1ccc(-c2cccc(NC(=O)C3CC3)c2)cc1` [Example 168, 3′-(Cyclopropanecarbonyl-amino)-biphenyl-4-carboxylic acid [4-(1,1-dioxo-1lambda*6*-thiomorpholin-4-ylmethyl)-phenyl]-amide]: the TD50 entry in data set [1] (setting [3]) was “* (* < 50 μM)”. This compound also displayed an IC50 in data set [2] (setting [4]) of less than 1000 nM.
As for `COc1cccc(NC(=O)c2ccc(-c3cc(C(=O)Nc4ccc(N5CCOCC5)cc4)ccc3C)cc2)c1` [Example 33, 6-Methyl-biphenyl-3,4′-dicarboxylic acid 4′-[(3-methoxy-phenyl)-amide] 3-[(4-morpholin-4-yl-phenyl)-amide]], the TD50 entry in data set [1] was “** (key: * < 50 μM; ** > 50 μM)”. In data set [2], this compound came in with an IC50 of less than 1000 nM.
For `Cc1ccc(C(=O)Nc2ccc(N3CCOCC3)cc2)cc1-c1ccc(C(=O)Nc2ccc3[nH]c(C(F)(F)F)nc3c2)cc1` [Example 38, 6-Methyl-biphenyl-3,4′-dicarboxylic acid 3-[(4-morpholin-4-yl-phenyl)-amide] 4′-[(2-trifluoromethyl-1H-benzoimidazol-5-yl)-amide]], the TD50 result in data set [1] is recorded as “** (key: * < 50 μM; ** > 50 μM)”. The IC50 in data set [2] lay within 1000 to 5000 nM.
For `Cc1ccc(C(=O)Nc2ccc(N3CCOCC3)cc2)cc1-c1ccc(C(=O)Nc2cccc(C(=O)c3ccccc3)c2)cc1` [Example 19, 6-Methyl-biphenyl-3,4′-dicarboxylic acid 4′-[(3-benzoyl-phenyl)-amide] 3-[(4-morpholin-4-yl-phenyl)-amide]], the TD50 result in data set [1] (setting [3]) is “** (** > 50 μM)”. In data set [2] (concentration reducing replicon level (luciferase activity) by 50% vs untreated cell control, 72 h incubation), this compound showed an IC50 of 1000 to 5000 nM.
Consider `Cc1ccc(NC(=O)c2ccc(N3CCOCC3)cc2)cc1-c1ccc(C(=O)Nc2ccc(CN3CCS(=O)(=O)CC3)cc2)cc1` [Example 87, 2′-Methyl-5′-(4-morpholin-4-yl-benzoylamino)-biphenyl-4-carboxylic acid [4-(1,1-dioxo-1lambda*6*-thiomorpholin-4-ylmethyl)-phenyl]-amide], for which the TD50 result in data set [1] (setting [3]) was “** (** > 50 μM)”. Further, in data set [2] (setting [4]), the IC50 was less than 1000 nM.
Turning to `Cc1ccc(CNC(=O)c2ccc(-c3cc(C(=O)Nc4ccc(N5CCOCC5)cc4)ccc3C)cc2)o1` [Example 14, 6-Methyl-biphenyl-3,4′-dicarboxylic acid 4′-[(5-methyl-furan-2-ylmethyl)-amide] 3-[(4-morpholin-4-yl-phenyl)-amide]], in data set [1], the TD50 entry is on record as “** (key: * < 50 μM; ** > 50 μM)”. Also, the IC50 in data set [2] was in the range of 1000 to 5000 nM.
Consider `Cc1ccc(C(=O)Nc2ccc(N3CCOCC3)cc2)cc1-c1ccc(NC(=O)c2ccc(CN(C)C)cc2)cc1` [Example 117, 4′-(4-Dimethylaminomethyl-benzoylamino)-6-methyl-biphenyl-3-carboxylic acid (4-morpholin-4-yl-phenyl)-amide], for which, in data set [1] (setting [3]), the TD50 result was “* (* < 50 μM)”. In data set [2] (setting [4]), this compound had an IC50 of 1000 to 5000 nM.
With `Cc1cc(NC(=O)c2ccc(C)c(-c3ccc(C(=O)Nc4ccc(CN5CCS(=O)(=O)CC5)cc4)cc3)c2)sn1` [Example 145, 6-Methyl-biphenyl-3,4′-dicarboxylic acid 4′-{[4-(1,1-dioxo-1lambda*6*-thiomorpholin-4-ylmethyl)-phenyl]-amide} 3-[(3-methyl-isothiazol-5-yl)-amide]], the TD50 entry in data set [1] is on record as “* (key: * < 50 μM; ** > 50 μM)”. In data set [2], this compound displayed an IC50 of 1000 to 5000 nM.
With `Cc1ccc(NC(=O)c2cccnc2)cc1-c1ccc(C(=O)Nc2ccc(CN3CCS(=O)(=O)CC3)cc2)cc1` [Example 156, N-{4′-[4-(1,1-Dioxo-1lambda*6*-thiomorpholin-4-ylmethyl)-phenylcarbamoyl]-6-methyl-biphenyl-3-yl}-nicotinamide], in data set [1] (setting [3]), the TD50 entry was “* (* < 50 μM)”. This compound came in with an IC50 in data set [2] (setting [4]) of 1000 to 5000 nM.
In the case of `CS(=O)(=O)N1CCN(Cc2ccc(NC(=O)c3ccc(Cl)c(-c4ccc(C(=O)Nc5ccc(N6CCOCC6)cc5)cc4)c3)cc2)CC1` [Example 265, 6-Chloro-biphenyl-3,4′-dicarboxylic acid 3-{[4-(4-methanesulfonyl-piperazin-1-ylmethyl)-phenyl]-amide} 4′-[(4-morpholin-4-yl-phenyl)-amide]], the TD50 entry in data set [1] is on record as “* (key: * < 50 μM; ** > 50 μM)”. In data set [2], the IC50 was less than 1000 nM.
On to `Cc1ccc(CNC(CO)Cc2cnc[nH]2)cc1-c1ccc(C(=O)Nc2ccc(N3CCOCC3)cc2)cc1` (stereo not drawn) [Example 95, 5′-{[1-Hydroxymethyl-2-(3H-imidazol-4-yl)-ethylamino]-methyl}-2′-methyl-biphenyl-4-carboxylic acid (4-morpholin-4-yl-phenyl)-amide], for which, in data set [1] (setting [3]), the TD50 result is listed as “* (* < 50 μM)”. For the same compound, the IC50 in data set [2] (setting [4]) lay within 1000 to 5000 nM.
With `Cc1cccc(CNC(=O)c2ccc(-c3cc(NC(=O)c4cn[nH]c4)ccc3C)cc2)c1` [Example 214, 1H-Pyrazole-4-carboxylic acid [6-methyl-4′-(3-methyl-benzylcarbamoyl)-biphenyl-3-yl]-amide], the TD50 entry in data set [1] (setting [3]) is on record as “* (* < 50 μM)”. Besides, the IC50 in data set [2] (setting [4]) was greater than 5000 nM.
As to `CCCS(=O)(=O)N1CCN(Cc2ccc(NC(=O)c3ccc(-c4cc(S(=O)(=O)Nc5ccc(N6CCOCC6)cc5)ccc4OC)cc3)cc2)CC1` [Example 248, 2′-Methoxy-5′-(4-morpholin-4-yl-phenylsulfamoyl)-biphenyl-4-carboxylic acid [4-(4-propane-1-sulfonyl-piperazin-1-ylmethyl)-phenyl]-amide], the TD50 entry in data set [1] (setting [3]) is listed as “* (* < 50 μM)”. The same compound came in with an IC50 in data set [2] (setting [4]) of less than 1000 nM.
The like results for `COc1ccc(S(=O)(=O)Nc2ccc(N3CCOCC3)cc2)cc1-c1ccc(C(=O)Nc2ccc(CN3CCN(S(C)(=O)=O)CC3)cc2)cc1` [Example 245, 2′-Methoxy-5′-(4-morpholin-4-yl-phenylsulfamoyl)-biphenyl-4-carboxylic acid [4-(4-methanesulfonyl-piperazin-1-ylmethyl)-phenyl]-amide] were, in that order, “* (* < 50 μM)” and less than 1000 nM.
Take `Cc1ccc(C(=O)Nc2ccc(N3CCOCC3)cc2)cc1-c1ccc(C(=O)Nc2ccccc2CN(C)C2CCCCC2)cc1` [Example 35, 6-Methyl-biphenyl-3,4′-dicarboxylic acid 4′-({2-[(cyclohexyl-methyl-amino)-methyl]-phenyl}-amide) 3-[(4-morpholin-4-yl-phenyl)-amide]]: the TD50 result in data set [1] is on record as “** (key: * < 50 μM; ** > 50 μM)”. The IC50 in data set [2] was greater than 5000 nM.
For `Cc1ccc(C(=O)Nc2ccc(N3CCOCC3)cc2)cc1-c1ccc(C(=O)Nc2ccc3c(c2)OCO3)cc1` [Example 16, 6-Methyl-biphenyl-3,4′-dicarboxylic acid 4′-benzo[1,3]dioxol-5-ylamide 3-[(4-morpholin-4-yl-phenyl)-amide]], in data set [1], the TD50 entry is on record as “** (key: * < 50 μM; ** > 50 μM)”. Also, the IC50 in data set [2] was in the range of 1000 to 5000 nM.
As for `Cc1ccc(NC(=O)c2ccco2)cc1-c1ccc(C(=O)Nc2ccc3cc[nH]c3c2)cc1` [Example 233, Furan-2-carboxylic acid [4′-(1H-indol-6-ylcarbamoyl)-6-methyl-biphenyl-3-yl]-amide], the TD50 result in data set [1] (setting [3]) is “* (* < 50 μM)”. The compound also had a half-maximal inhibitory concentration (IC50) in data set [2] (setting [4]) of less than 1000 nM.
With `CS(=O)(=O)N1CCN(Cc2ccc(NC(=O)c3ccc(-c4cc(NC(=O)[C@H]5CCCN5)ccc4Cl)cc3)cc2)CC1` [Example 250, (R)-Pyrrolidine-2-carboxylic acid {6-chloro-4′-[4-(4-methanesulfonyl-piperazin-1-ylmethyl)-phenylcarbamoyl]-biphenyl-3-yl}-amide], in data set [1] (setting [3]), the TD50 result is given as “* (* < 50 μM)”. Besides, the IC50 in data set [2] (setting [4]) is less than 1000 nM.
Turning to `Cc1ccc(NC(=O)C2CCCCC2)cc1-c1ccc(C(=O)Nc2ccc(-n3cncn3)cc2)cc1` [Example 219, 5′-(Cyclohexanecarbonyl-amino)-2′-methyl-biphenyl-4-carboxylic acid (4-[1,2,4]triazol-1-yl-phenyl)-amide], the TD50 result in data set [1] (setting [3]) was “* (* < 50 μM)”. For the same compound, the IC50 in data set [2] (setting [4]) lay within 1000 to 5000 nM.
For `CCCCS(=O)(=O)N1CCN(Cc2ccc(NC(=O)c3ccc(-c4cc(C(=O)Nc5ccc(N6CCOCC6)cc5)ccc4Cl)cc3)cc2)CC1` [Example 263, 6-Chloro-biphenyl-3,4′-dicarboxylic acid 4′-({4-[4-(butane-1-sulfonyl)piperazin-1-ylmethyl]-phenyl}-amide) 3-[(4-morpholin-4-yl-phenyl)-amide]], in data set [1], the TD50 result was “* (key: * < 50 μM; ** > 50 μM)”. The compound also registered an IC50 in data set [2] of less than 1000 nM.
With `CNS(=O)(=O)Cc1ccc(NC(=O)c2ccc(-c3cc(C(=O)Nc4ccc(N5CCOCC5)cc4)ccc3C)cc2)cc1` [Example 54, 6-Methyl-biphenyl-3,4′-dicarboxylic acid 4′-[(4-methylsulfamoylmethyl-phenyl)-amide] 3-[(4-morpholin-4-yl-phenyl)-amide]], the TD50 entry in data set [1] is “** (key: * < 50 μM; ** > 50 μM)”. This compound returned a half-maximal inhibitory concentration (IC50) in data set [2] of 1000 to 5000 nM.
`Cc1ccc(C(=O)NCCN2CCCCC2)cc1-c1ccc(C(=O)Nc2ccc(CN3CCS(=O)(=O)CC3)cc2)cc1` [Example 125, 6-Methyl-biphenyl-3,4′-dicarboxylic acid 4′-{[4-(1,1-dioxo-1lambda*6*-thiomorpholin-4-ylmethyl)-phenyl]-amide} 3-[(2-piperidin-1-yl-ethyl)-amide]]: the TD50 entry in data set [1] is on record as “* (key: * < 50 μM; ** > 50 μM)”. Moreover, the IC50 in data set [2] lay in the range of 1000 to 5000 nM.

Broadly, the IC50 is the concentration needed to halve the response being measured.
